From patent US8829011B2 (Janssen Pharmaceutica NV, priority 2008, dated 2014)
Counter-ions that a name gives are not always drawn.

Legend:
[1] = target: T1, human recombinant 5-HT6 receptor (Homo sapiens, UniProt P50406); assay: Affinity for 5-HT6 receptor binding sites (competitive radioligand binding, [3H]LSD); conditions: membranes of HEK-293 with h5-HT6, * = tested as hydrochloride salt
T1 construct: expressed in transfected cells; host or cells: HEK-293
Method in brief: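 Membranes from HEK-293 cells stably expressing human 5-HT6, competition against [3H]LSD; nonspecific binding defined with 1 μM clozapine. DMSO ≤0.4% final. Inhibition curves fitted by nonlinear regression.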

[2] = target: T2, human recombinant 5-HT2B receptor (Homo sapiens, UniProt P41595); assay: Affinity for 5-HT2B receptor binding sites (competitive radioligand binding, [3H]mesulergine); conditions: membranes of CHO with h5-HT2B, * = tested as hydrochloride salt
T2 construct: expressed in transfected cells; host or cells: CHO
T2 sequence (P41595 whole entry): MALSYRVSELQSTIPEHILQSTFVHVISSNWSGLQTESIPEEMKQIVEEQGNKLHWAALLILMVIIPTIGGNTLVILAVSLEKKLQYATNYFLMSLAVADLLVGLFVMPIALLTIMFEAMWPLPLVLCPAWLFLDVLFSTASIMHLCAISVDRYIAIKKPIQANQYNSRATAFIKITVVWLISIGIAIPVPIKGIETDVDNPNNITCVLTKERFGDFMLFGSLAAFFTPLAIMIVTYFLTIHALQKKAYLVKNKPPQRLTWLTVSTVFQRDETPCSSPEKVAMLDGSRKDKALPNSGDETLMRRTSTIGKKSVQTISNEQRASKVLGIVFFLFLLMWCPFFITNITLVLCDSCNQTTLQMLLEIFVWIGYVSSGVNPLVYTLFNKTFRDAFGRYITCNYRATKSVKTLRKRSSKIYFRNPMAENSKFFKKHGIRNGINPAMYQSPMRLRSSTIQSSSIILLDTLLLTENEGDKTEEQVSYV
Method in brief: (§1)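 Membranes from NIH3T3 cells stably expressing h5-HT2A or CHO cells stably expressing h5-HT2B/h5-HT2C; [3H]ketanserin used for 5-HT2A, [3H]mesulergine for 5-HT2B/2C. Compounds from 10 mM DMSO stocks, final DMSO ≤0.4%. Affinity from sigmoidal inhibition curves fitted by nonlinear regression.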

[3] = target: T3, human recombinant 5-HT2C receptor (Homo sapiens, UniProt P28335); assay: Affinity for 5-HT2C receptor binding sites (competitive radioligand binding, [3H]mesulergine); conditions: membranes of CHO with h5-HT2C, * = tested as hydrochloride salt
T3 construct: expressed in transfected cells; host or cells: CHO
T3 sequence (P28335 33-458): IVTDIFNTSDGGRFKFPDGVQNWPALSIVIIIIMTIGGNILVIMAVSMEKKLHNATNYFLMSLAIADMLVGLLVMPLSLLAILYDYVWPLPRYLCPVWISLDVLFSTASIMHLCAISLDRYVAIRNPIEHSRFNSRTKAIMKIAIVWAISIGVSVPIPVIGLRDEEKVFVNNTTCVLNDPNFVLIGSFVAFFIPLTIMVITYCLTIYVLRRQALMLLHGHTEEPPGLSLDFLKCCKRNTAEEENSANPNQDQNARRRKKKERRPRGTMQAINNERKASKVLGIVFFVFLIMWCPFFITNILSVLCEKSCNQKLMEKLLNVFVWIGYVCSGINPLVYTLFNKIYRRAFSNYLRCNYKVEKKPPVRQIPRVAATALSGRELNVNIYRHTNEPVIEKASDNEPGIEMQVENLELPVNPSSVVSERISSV
Method in brief: as §1

rat 5-HT7a receptor = target: T4, rat 5-HT7a receptor (Rattus norvegicus, UniProt P32305); assay: Affinity for 5-HT7 receptor binding sites (competition radioligand binding, [3H]5-CT); conditions: membranes of HEK-293 cells with rat 5-HT7a; 1 nM [3H]5-CT; * = tested as hydrochloride salt
T4 construct: expressed in transfected cells; host or cells: HEK-293
T4 sequence (P32305 whole entry): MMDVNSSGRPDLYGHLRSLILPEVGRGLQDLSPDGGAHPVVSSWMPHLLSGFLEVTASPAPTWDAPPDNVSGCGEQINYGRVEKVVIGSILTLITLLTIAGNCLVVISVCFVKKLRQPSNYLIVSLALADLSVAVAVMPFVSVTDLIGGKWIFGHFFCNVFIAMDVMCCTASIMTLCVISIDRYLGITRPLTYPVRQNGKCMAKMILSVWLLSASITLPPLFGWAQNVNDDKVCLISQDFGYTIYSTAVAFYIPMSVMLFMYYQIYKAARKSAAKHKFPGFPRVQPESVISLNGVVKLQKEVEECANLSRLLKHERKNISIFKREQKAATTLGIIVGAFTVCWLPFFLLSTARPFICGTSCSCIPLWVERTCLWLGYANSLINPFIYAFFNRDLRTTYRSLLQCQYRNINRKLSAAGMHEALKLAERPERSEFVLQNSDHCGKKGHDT
Protocol: Stock drug solutions (10 mM) were prepared in DMSO (the final assay concentration of DMSO not exceeding 0.4%). Drug dilutions were prepared in assay buffer.
Sigmoidal inhibition curves were generated and fitted by nonlinear regression analysis (GraphPad Prism).
1. Affinity for 5-HT7 Receptor Binding Sites
The affinity of the compounds described in this invention for the 5-HT7 receptor binding site was evaluated by single competition radioligand binding assay. The assay was performed on membranes prepared from HEK-293 cells that had been subjected to stable transfection with the rat 5-HT7a receptor (GB: NM022938). Cells were scraped from the culture plates, suspended in Tris-HCl 50 mM pH 7.5 and collected through centrifugation (1000 rpm for 5 min). The cell pellets were homogenized (Polytron, 15 s, setting 5) in 50 mM Tris-HCl (pH 7.5), 5 mM EDTA. Following centrifugation (15,000 rpm for 25 min), membranes (135 μg protein/mL) were resuspended in the same buffer and incubated for 60 min at RT with 1 nM [^3H]5-CT in the presence of increasing concentration of test compounds. Nonspecific binding was defined in the presence of 10 μM 5-HT. Incubation was stopped by rapid filtration using the cell harvester (Packard). Radioactivity was counted in a TopCount-NXT (Packard). Experiments were conducted in triplicate.

[4] = target: T5, human recombinant 5-HT2A receptor (Homo sapiens, UniProt P28223); assay: Affinity for 5-HT2A receptor binding sites (competitive radioligand binding, [3H]ketanserin); conditions: membranes of NIH3T3 with h5-HT2A, * = tested as hydrochloride salt
T5 construct: expressed in transfected cells; host or cells: NIH3T3
T5 sequence (P28223 whole entry): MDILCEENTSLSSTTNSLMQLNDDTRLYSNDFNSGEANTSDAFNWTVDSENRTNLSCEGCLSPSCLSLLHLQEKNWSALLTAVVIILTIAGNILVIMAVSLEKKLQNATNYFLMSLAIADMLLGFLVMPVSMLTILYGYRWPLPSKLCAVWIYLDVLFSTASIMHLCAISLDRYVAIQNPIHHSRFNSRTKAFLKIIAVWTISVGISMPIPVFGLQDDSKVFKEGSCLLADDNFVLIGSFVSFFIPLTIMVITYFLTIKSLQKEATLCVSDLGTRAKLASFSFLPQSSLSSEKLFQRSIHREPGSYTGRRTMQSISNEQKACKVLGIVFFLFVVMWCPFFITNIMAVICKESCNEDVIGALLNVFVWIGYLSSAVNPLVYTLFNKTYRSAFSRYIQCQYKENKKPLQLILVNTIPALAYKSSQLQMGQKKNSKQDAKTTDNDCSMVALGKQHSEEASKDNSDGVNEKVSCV
Method in brief: as §1

T1 sequence (P50406 whole entry): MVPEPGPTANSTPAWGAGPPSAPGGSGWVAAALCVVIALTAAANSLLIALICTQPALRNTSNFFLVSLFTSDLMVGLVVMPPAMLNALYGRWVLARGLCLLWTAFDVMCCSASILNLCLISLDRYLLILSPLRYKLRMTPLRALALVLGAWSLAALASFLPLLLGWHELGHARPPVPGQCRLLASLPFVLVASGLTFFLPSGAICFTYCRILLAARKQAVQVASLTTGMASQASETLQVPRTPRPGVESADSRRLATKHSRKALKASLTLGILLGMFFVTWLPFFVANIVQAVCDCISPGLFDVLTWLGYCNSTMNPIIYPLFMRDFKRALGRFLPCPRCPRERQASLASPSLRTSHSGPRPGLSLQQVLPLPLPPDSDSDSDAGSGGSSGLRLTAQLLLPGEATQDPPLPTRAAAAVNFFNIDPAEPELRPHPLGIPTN

SMILES	Ki [1]	Ki [2]	Ki [3]	Ki (rat 5-HT7a receptor)	Ki [4]
CCN(CC)c1nc2c(c(-c3ccc(OC)cc3)n1)CCNCC2 [Example 13, Diethyl-[4-(4-methoxy-phenyl)-6,7,8,9-tetrahydro-5H-pyrimido[4,5-d]azepin-2-yl]-amine hydrochloride]	28 nM	0.8 nM	40 nM	32 nM	10 nM
CCN(CC)c1nc2c(c(-c3ccc(C#N)cc3)n1)CCNCC2 [Example 14, 4-(2-Diethylamino-6,7,8,9-tetrahydro-5H-pyrimido[4,5-d]azepin-4-yl)-benzonitrile hydrochloride]	220 nM	5 nM	130 nM	63 nM	40 nM
CCN(CC)c1nc2c(c(-c3ccc(F)cc3)n1)CCNC2 [Example 24, Diethyl-[4-(4-fluoro-phenyl)-5,6,7,8-tetrahydro-pyrido[3,4-d]pyrimidin-2-yl]-amine]	933 nM	7 nM	120 nM	50 nM	3 nM
CCN(CC)c1nc2c(c(-c3ccc(C)cc3)n1)CCNC2 [Example 26, Diethyl-(4-p-tolyl-5,6,7,8-tetrahydro-pyrido[3,4-d]pyrimidin-2-yl)-amine]	316 nM	13 nM	200 nM	100 nM	7 nM
CCN(CC)c1nc2c(c(-c3ccc(OC)cc3)n1)CCNC2 [Example 28, Diethyl-[4-(4-methoxy-phenyl)-5,6,7,8-tetrahydro-pyrido[3,4-d]pyrimidin-2-yl]-amine]	1510 nM	15 nM	280 nM	130 nM	70 nM
CCN(CC)c1nc2c(c(-c3ccc(C#N)cc3)n1)CCNC2 [Example 30, 4-(2-Diethylamino-5,6,7,8-tetrahydro-pyrido[3,4-d]pyrimidin-4-yl)-benzonitrile]	3720 nM	60 nM	1400 nM	300 nM	48 nM
CC1CCCN1c1nc2c(c(-c3ccc(F)cc3)n1)CNCC2 (stereo not shown) [Example 38, 4-(4-Fluoro-phenyl)-2-(2-methyl-pyrrolidin-1-yl)-5,6,7,8-tetrahydro-pyrido[4,3-d]pyrimidine hydrochloride]	1950 nM	50 nM	65 nM	> 10000 nM	1.9 nM
Fc1ccc(-c2nc(N3CCOCC3)nc3c2CNCC3)cc1 [Example 42, 4-(4-Fluoro-phenyl)-2-morpholin-4-yl-5,6,7,8-tetrahydro-pyrido[4,3-d]pyrimidine]	9770 nM	2050 nM	500 nM	> 10000 nM	20 nM
CC(C)N(c1nc2c(c(-c3ccc(F)cc3)n1)CNCC2)C(C)C [Example 43, [4-(4-Fluoro-phenyl)-5,6,7,8-tetrahydro-pyrido[4,3-d]pyrimidin-2-yl]-diisopropyl-amine hydrochloride]	195 nM	100 nM	150 nM	320 nM	3 nM
C[C@H]1COCCN1c1nc2c(c(-c3ccc(F)cc3)n1)CNCC2 [Example 45, 4-(4-Fluoro-phenyl)-2-(3-methyl-morpholin-4-yl)-5,6,7,8-tetrahydro-pyrido[4,3-d]pyrimidine]	3390 nM	1200 nM	2500 nM	> 10000 nM	24 nM
CCNc1nc2c(c(-c3ccc(C)cc3)n1)CNCC2 [Example 48, Ethyl-(4-p-tolyl-5,6,7,8-tetrahydro-pyrido[4,3-d]pyrimidin-2-yl)-amine]	> 10000 nM	3000 nM	> 10000 nM	> 10000 nM	2000 nM
Cc1ccc(-c2nc(N3CCOCC3)nc3c2CNCC3)cc1 [Example 49, 2-Morpholin-4-yl-4-p-tolyl-5,6,7,8-tetrahydro-pyrido[4,3-d]pyrimidine]	2090 nM	5010 nM	630 nM	530 nM	100 nM
Cc1ccc(-c2nc(N3CCCCC3)nc3c2CNCC3)cc1 [Example 50, 2-Piperidin-1-yl-4-p-tolyl-5,6,7,8-tetrahydro-pyrido[4,3-d]pyrimidine]	776 nM	160 nM	130 nM	350 nM	30 nM
Cc1ccc(-c2nc(NCc3ccccc3)nc3c2CNCC3)cc1 [Example 51, Benzyl-(4-p-tolyl-5,6,7,8-tetrahydro-pyrido[4,3-d]pyrimidin-2-yl)-amine]	912 nM	700 nM	100 nM	320 nM	75 nM
Cc1ccc(-c2nc(N3CCCC3)nc3c2CN(C)CC3)cc1 [Example 52, 6-Methyl-2-pyrrolidin-1-yl-4-p-tolyl-5,6,7,8-tetrahydro-pyrido[4,3-d]pyrimidine]	977 nM	500 nM	500 nM	> 10000 nM	120 nM
CCN(CC)c1nc2c(c(-c3ccc(Cl)cc3)n1)CCNCC2 [Example 60, [4-(4-Chloro-phenyl)-6,7,8,9-tetrahydro-5H-pyrimido[4,5-d]azepin-2-yl]-diethyl-amine]	> 10000 nM	10 nM	100 nM	41 nM	20 nM
Cc1ccc(-c2nc(N(C)C)nc3c2CNCC3)cc1 [Example 61, Dimethyl-(4-p-tolyl-5,6,7,8-tetrahydro-pyrido[4,3-d]pyrimidin-2-yl)-amine]	2290 nM	620 nM	5000 nM	9000 nM	420 nM
